Molecules are shown by their SMILES.

This test has as its target T1, human GPR131 (Homo sapiens, UniProt Q8TDU6).
T1 construct: expressed in transfected cells
T1 sequence (Q8TDU6 1-330): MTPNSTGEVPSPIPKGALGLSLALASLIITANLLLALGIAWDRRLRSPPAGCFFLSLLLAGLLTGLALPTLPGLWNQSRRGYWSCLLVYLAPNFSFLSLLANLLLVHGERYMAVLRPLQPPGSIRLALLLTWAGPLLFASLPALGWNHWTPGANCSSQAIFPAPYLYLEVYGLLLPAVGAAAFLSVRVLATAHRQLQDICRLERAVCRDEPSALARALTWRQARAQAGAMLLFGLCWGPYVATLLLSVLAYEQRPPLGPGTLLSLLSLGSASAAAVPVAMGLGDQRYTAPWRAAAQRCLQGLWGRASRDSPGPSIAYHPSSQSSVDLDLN
Description: Stimulation of cAMP (agonism of GPR131), FRET cAMP assay. The settings on record: 0.5 h; 1.1 μM compound; compared to maximal stimulatory activity of lithocholic acid (LCA) determined at 3.3 μM; stable cell line expressing human GPR131; 37° C. for 30 minutes; read-out: Percent Activity @ 1.1 μM (of 3.3 uM LCA) (%). Format: cell-based. The procedure:
This assay was developed using a stable cell line expressing human GPR131.
To measure cAMP activity in response to GPR131 agonists, GPR131 cells suspended in DMEM/F12 medium with 1 mM IBMX were seeded in 384 well plates at 5000 cells per well. After incubating with test compounds at 37° C. for 30 minutes cAMP was measured using a fluorescene resonance energy transfer cAMP kit from Cis Bio (Bedford, Mass.) according to the manufacturer's instructions. Briefly, cells were lysed, and cAMP levels determined by competitive immunoassay using D2 labeled cAMP, and europium cryptate tagged anti cAMP antibody. Decreases in the FRET signal (fluorescence ratio (665 nm/620 […]) correspond to increases in intracellular cAMP levels.
Activities of test compounds in Table 1 below are expressed as percent activity at 1.1 μM compound compared to the maximal stimulatory activity of lithocholic acid (LCA) (determined at 3.3 μM LCA).
In general terms: Changes in cAMP serve as a functional read-out for many G protein-coupled receptors.
With `Clc1ccc(-n2nnnc2-c2c(-c3ccccc3Cl)nc3ccccn23)cc1` [Compound 500, 2-(2-Chlorophenyl)-3-(1-(4-chlorophenyl)-1H-tetrazol-5-yl)imidazo[1,2-a]pyridine], the activation at 1.1 µM was 97.4%. On to `Clc1ccc(-n2cnnc2-c2c(-c3ccccc3Cl)nc3ccccn23)cc1` [Compound 501, 2-(2-Chlorophenyl)-3-(4-(4-chlorophenyl)-4H-1,2,4-triazol-3-yl)imidazo[1,2-a]pyridine], for which the activation at 1.1 µM stood at 99.4%. On to `Clc1ccc(-n2ncnc2-c2c(-c3ccccc3Cl)nc3ccccn23)cc1` [Compound 503, 2-(2-Chlorophenyl)-3-(1-(4-chlorophenyl)-1H-1,2,4-triazol-5-yl)imidazo[1,2-a]pyridine], for which the activation at 1.1 µM worked out at 97.4%. For the compound `Cc1nc(-c2c(-c3cc(Cl)ccc3Cl)nc3ccccn23)n(-c2ccc(Cl)cc2)n1` [Compound 504, 3-(1-(4-Chlorophenyl)-3-methyl-1H-1,2,4-triazol-5-yl)-2-(2,5-dichlorophenyl)imidazo[1,2-a]pyridine], the activation at 1.1 µM is 97.4%. On to `Cc1nnc(-c2c(-c3cc(Cl)ccc3Cl)nc3ccccn23)n1-c1ccc(Cl)cc1` [Compound 505, 3-(4-(4-Chlorophenyl)-5-methyl-4H-1,2,4-triazol-3-yl)-2-(2,5-dichlorophenyl)imidazo[1,2-a]pyridine], for which the activation at 1.1 µM came out at 99.1%. As to `Clc1ccc(-n2ccnc2-c2c(-c3cc(Cl)ccc3Cl)nc3ccccn23)cc1` [Compound 506, 3-(1-(4-Chlorophenyl)-1H-imidazol-2-yl)-2-(2,5-dichlorophenyl)imidazo[1,2-a]pyridine], the activation at 1.1 µM worked out at 99.4%. Under `Clc1ccc(-n2cncc2-c2c(-c3cc(Cl)ccc3Cl)nc3ccccn23)cc1` [Compound 507, 3-(1-(4-Chlorophenyl)-1H-imidazol-5-yl)-2-(2,5-dichlorophenyl)imidazo[1,2-a]pyridine] stands 100%. Under `CN(C)c1ccc(-n2cnnc2-c2c(-c3cc(Cl)ccc3Cl)nc3ccccn23)cc1` [Compound 510, 4-(3-(2-(2,5-Dichlorophenyl)imidazo[1,2-a]pyridin-3-yl)-4H-1,2,4-triazol-4-yl)-N,N-dimethylaniline] stands 100%; under `FC(F)(F)c1ccc(-n2cnnc2-c2c(-c3cc(Cl)ccc3Cl)nc3ccccn23)cc1` [Compound 513, 2-(2,5-Dichlorophenyl)-3-(4-(4-(trifluoromethyl)phenyl)-4H-1,2,4-triazol-3-yl)imidazo[1,2-a]pyridine], 100%.

`Clc1ccc(Cl)c(-c2nc3ccccn3c2-c2nncn2-c2ccc3[nH]ncc3c2)c1` [Compound 514, 5-(3-(2-(2,5-Dichlorophenyl)imidazo[1,2-a]pyridin-3-yl)-4H-1,2,4-triazol-4-yl)-1H-indazole]: the activation at 1.1 µM is 93.3%.

With `N#Cc1ccc(-n2cnnc2-c2c(-c3cc(Cl)ccc3Cl)nc3ccccn23)cc1` [Compound 515, 4-(3-(2-(2,5-Dichlorophenyl)imidazo[1,2-a]pyridin-3-yl)-4H-1,2,4-triazol-4-yl)benzonitrile], the activation at 1.1 µM came out at 100%. Next, `Clc1ccc(Cl)c(-c2nc3ccccn3c2-c2nncn2-c2ccc3cn[nH]c3c2)c1` [Compound 516, 6-(3-(2-(2,5-Dichlorophenyl)imidazo[1,2-a]pyridin-3-yl)-4H-1,2,4-triazol-4-yl)-1H-indazole]: 99.8%; `Clc1ccc(Cl)c(-c2nc3ccccn3c2-c2nncn2-c2ccc3scnc3c2)c1` [Compound 518, 5-(3-(2-(2,5-Dichlorophenyl)imidazo[1,2-a]pyridin-3-yl)-4H-1,2,4-triazol-4-yl)benzo[d]thiazole]: 98.4%; `Cn1ncc2cc(-n3cnnc3-c3c(-c4cc(Cl)ccc4Cl)nc4ccccn34)ccc21` [Compound 519, 5-(3-(2-(2,5-Dichlorophenyl)imidazo[1,2-a]pyridin-3-yl)-4H-1,2,4-triazol-4-yl)-1-methyl-1H-indazole]: 99.9%. Next, `Cn1ncc2ccc(-n3cnnc3-c3c(-c4cc(Cl)ccc4Cl)nc4ccccn34)cc21` [Compound 520, 6-(3-(2-(2,5-Dichlorophenyl)imidazo[1,2-a]pyridin-3-yl)-4H-1,2,4-triazol-4-yl)-1-methyl-1H-indazole]: 95.7%; `Cn1cnc2cc(-n3cnnc3-c3c(-c4cc(Cl)ccc4Cl)nc4ccccn34)ccc21` [Compound 521, 5-(3-(2-(2,5-Dichlorophenyl)imidazo[1,2-a]pyridin-3-yl)-4H-1,2,4-triazol-4-yl)-1-methyl-1H-benzo[d]imidazole]: 81.6%; `Clc1ccccc1-c1nc2ccccn2c1-c1nncn1-c1ccc2cn[nH]c2c1` [Compound 522, 6-(3-(2-(2-Chlorophenyl)imidazo[1,2-a]pyridin-3-yl)-4H-1,2,4-triazol-4-yl)-1H-indazole]: 91.4%.

For `Clc1ccc(Cl)c(-c2nc3cccnn3c2-c2nncn2-c2ccc3cn[nH]c3c2)c1` [Compound 523, 3-(4-(1H-Indazol-6-yl)-4H-1,2,4-triazol-3-yl)-2-(2,5-dichlorophenyl)imidazo[1,2-b]pyridazine], the activation at 1.1 µM was 95.2%. Consider `Fc1ccc(-c2nn3ccccc3c2-c2nncn2-c2ccc(Cl)cc2)cc1` [Compound 524, 3-(4-(4-Chlorophenyl)-4H-1,2,4-triazol-3-yl)-2-(4-fluorophenyl)pyrazolo[1,5-a]pyridine], for which the activation at 1.1 µM stood at 99.1%. Take `O=c1[nH]nc(-c2c(-c3cc(Cl)ccc3Cl)nc3ccccn23)n1-c1ccc(Cl)cc1` [Compound 525, 4-(4-Chlorophenyl)-3-(2-(2,5-dichlorophenyl)imidazo[1,2-a]pyridin-3-yl)-1H-1,2,4-triazol-5(4H)-one]: the activation at 1.1 µM is 83.3%. Next, `S=c1[nH]nc(-c2c(-c3cc(Cl)ccc3Cl)nc3ccccn23)n1-c1ccc(Cl)cc1` [Compound 526, 4-(4-Chlorophenyl)-3-(2-(2,5-dichlorophenyl)imidazo[1,2-a]pyridin-3-yl)-1H-1,2,4-triazole-5(4H)-thione]: 98.9%. Next, `COc1nnc(-c2c(-c3cc(Cl)ccc3Cl)nc3ccccn23)n1-c1ccc(Cl)cc1` [Compound 527, 3-(4-(4-Chlorophenyl)-5-methoxy-4H-1,2,4-triazol-3-yl)-2-(2,5-dichlorophenyl)imidazo[1,2-a]pyridine]: 97.1%. `CSc1nnc(-c2c(-c3cc(Cl)ccc3Cl)nc3ccccn23)n1-c1ccc(Cl)cc1` [Compound 528, 3-(4-(4-Chlorophenyl)-5-(methylthio)-4H-1,2,4-triazol-3-yl)-2-(2,5-dichlorophenyl)imidazo[1,2-a]pyridine]: the activation at 1.1 µM came out at 86.8%. `CCc1ccc(-n2cnnc2-c2c(-c3cc(Cl)ccc3Cl)nc3ccccn23)cc1` [Compound 529, 2-(2,5-Dichlorophenyl)-3-(4-(4-ethylphenyl)-4H-1,2,4-triazol-3-yl)imidazo[1,2-a]pyridine]: the activation at 1.1 µM came out at 99.6%. Regarding `CC(C)c1ccc(-n2cnnc2-c2c(-c3cc(Cl)ccc3Cl)nc3ccccn23)cc1` [Compound 530, 2-(2,5-Dichlorophenyl)-3-(4-(4-isopropylphenyl)-4H-1,2,4-triazol-3-yl)imidazo[1,2-a]pyridine], the activation at 1.1 µM was found to be 98.9%.

With `Clc1ccc(Cl)c(-c2nc3ccccn3c2-c2nncn2-c2ccc(-c3ccccc3)cc2)c1` [Compound 531, 3-(4-([1,1′-Biphenyl]-4-yl)-4H-1,2,4-triazol-3-yl)-2-(2,5-dichlorophenyl)imidazo[1,2-a]pyridine], the activation at 1.1 µM was determined as 88.8%. Under `Fc1ccc(-n2cnnc2-c2c(-c3cc(Cl)ccc3Cl)nc3ccccn23)cc1` [Compound 533, 2-(2,5-Dichlorophenyl)-3-(4-(4-fluorophenyl)-4H-1,2,4-triazol-3-yl)imidazo[1,2-a]pyridine] stands 100%; under `Fc1ccccc1-n1cnnc1-c1c(-c2cc(Cl)ccc2Cl)nc2ccccn12` [Compound 534, 2-(2,5-Dichlorophenyl)-3-(4-(2-fluorophenyl)-4H-1,2,4-triazol-3-yl)imidazo[1,2-a]pyridine], 96.8%; under `Fc1cccc(-n2cnnc2-c2c(-c3cc(Cl)ccc3Cl)nc3ccccn23)c1` [Compound 535, 2-(2,5-Dichlorophenyl)-3-(4-(3-fluorophenyl)-4H-1,2,4-triazol-3-yl)imidazo[1,2-a]pyridine], 99.6%.

Regarding `Cn1ccc2cc(-n3cnnc3-c3c(-c4cc(Cl)ccc4Cl)nc4ccccn34)ccc21` [Compound 536, 2-(2,5-Dichlorophenyl)-3-(4-(1-methyl-1H-indol-5-yl)-4H-1,2,4-triazol-3-yl)imidazo[1,2-a]pyridine], the activation at 1.1 µM worked out at 100%. Regarding `Cc1ccc(-n2cnnc2-c2c(-c3cc(Cl)ccc3Cl)nc3ccccn23)cn1` [Compound 540, 2-(2,5-Dichlorophenyl)-3-(4-(6-methylpyridin-3-yl)-4H-1,2,4-triazol-3-yl)imidazo[1,2-a]pyridine], the activation at 1.1 µM was determined as 96%.

These data come from US9593109B2, “Bicyclic agonists of GPR131 and uses thereof” (CYMABAY THERAPEUTICS, INC., priority 2011, dated 2017).
